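Where inhibition never reached the appropriate level, the endpoint shown equals the highest concentration tested. Otherwise, values were interpolated linearly from a five-concentration, 48-hour dose response in 96-well plates. GI50: concentration for 50% inhibition of growth. TGI marks complete inhibition of growth.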
Columns and labels:
Test in all cases: inhibition of tumour cell growth, NCI panel, 48 h
786-0 renal = test system: 786-0 renal
A549 NSCLC = test system: A549 NSCLC
BT-549 breast = test system: BT-549 breast
CCRF-CEM leukemia = test system: CCRF-CEM leukemia
COLO 205 colon = test system: COLO 205 colon
DU-145 prostate = test system: DU-145 prostate
EKVX NSCLC = test system: EKVX NSCLC
HCC-2998 colon = test system: HCC-2998 colon
HCT-116 colon = test system: HCT-116 colon
HCT-15 colon = test system: HCT-15 colon
HL-60(TB) leukemia = test system: HL-60(TB) leukemia
HOP-62 NSCLC = test system: HOP-62 NSCLC
HOP-92 NSCLC = test system: HOP-92 NSCLC
HT29 colon = test system: HT29 colon
IGROV1 ovarian = test system: IGROV1 ovarian
K-562 leukemia = test system: K-562 leukemia
KM12 colon = test system: KM12 colon
LOX IMVI melanoma = test system: LOX IMVI melanoma
M14 melanoma = test system: M14 melanoma
MCF7 breast = test system: MCF7 breast
MDA-MB-231 breast = test system: MDA-MB-231 breast
MDA-MB-435 = test system: MDA-MB-435
MOLT-4 leukemia = test system: MOLT-4 leukemia
NCI-H23 lung = test system: NCI-H23 lung
NCI-H460 lung = test system: NCI-H460 lung
NCI-H522 lung = test system: NCI-H522 lung
NCI/ADR-RES ovarian = test system: NCI/ADR-RES ovarian
OVCAR-3 ovarian = test system: OVCAR-3 ovarian
OVCAR-4 ovarian = test system: OVCAR-4 ovarian
OVCAR-5 ovarian = test system: OVCAR-5 ovarian
OVCAR-8 ovarian = test system: OVCAR-8 ovarian
PC-3 prostate = test system: PC-3 prostate
SF-268 CNS = test system: SF-268 CNS
SF-295 CNS = test system: SF-295 CNS
SF-539 CNS = test system: SF-539 CNS
SK-MEL-28 melanoma = test system: SK-MEL-28 melanoma
SK-MEL-5 melanoma = test system: SK-MEL-5 melanoma
SK-OV-3 ovarian = test system: SK-OV-3 ovarian
SN12C renal = test system: SN12C renal
SNB-19 CNS = test system: SNB-19 CNS
SNB-75 CNS = test system: SNB-75 CNS
SR leukemia = test system: SR leukemia
SW-620 colon = test system: SW-620 colon
T-47D breast = test system: T-47D breast
TK-10 renal = test system: TK-10 renal
U251 CNS = test system: U251 CNS
UACC-257 melanoma = test system: UACC-257 melanoma
UACC-62 melanoma = test system: UACC-62 melanoma
UO-31 renal = test system: UO-31 renal
ACHN renal = test system: ACHN renal
CAKI-1 renal = test system: CAKI-1 renal
HS 578T breast = test system: HS 578T breast
NCI-H226 lung = test system: NCI-H226 lung
RPMI-8226 leukemia = test system: RPMI-8226 leukemia
RXF 393 renal = test system: RXF 393 renal
SK-MEL-2 melanoma = test system: SK-MEL-2 melanoma

With `c1cc2sc1CSCCSCCSC2` the TGI (786-0 renal) was greater than 100 µM, the TGI (A549 NSCLC) was greater than 100 µM and the TGI (BT-549 breast) was greater than 100 µM. It also gave a TGI (CCRF-CEM leukemia) greater than 100 µM, a TGI (COLO 205 colon) greater than 100 µM and a TGI (DU-145 prostate) greater than 100 µM. For the same molecule, the TGI (EKVX NSCLC) was greater than 100 µM, the TGI (HCC-2998 colon) was greater than 100 µM and the TGI (HCT-116 colon) was greater than 100 µM. The TGI (HCT-15 colon) was greater than 100 µM, the TGI (HL-60(TB) leukemia) was greater than 100 µM and the TGI (HOP-62 NSCLC) was greater than 100 µM. The TGI (HOP-92 NSCLC) was greater than 100 µM, the TGI (HT29 colon) was greater than 100 µM and the TGI (IGROV1 ovarian) was greater than 100 µM. The TGI (K-562 leukemia) was greater than 100 µM, the TGI (KM12 colon) was greater than 100 µM and the TGI (LOX IMVI melanoma) was greater than 100 µM. The TGI (M14 melanoma) was greater than 100 µM, the TGI (MCF7 breast) was greater than 100 µM and the TGI (MDA-MB-231 breast) was greater than 100 µM. For the same molecule, the TGI (MDA-MB-435) was greater than 100 µM, the TGI (MOLT-4 leukemia) was greater than 100 µM and the TGI (NCI-H23 lung) was greater than 100 µM. For the same molecule, the TGI (NCI-H460 lung) was greater than 100 µM, the TGI (NCI-H522 lung) was greater than 100 µM and the TGI (NCI/ADR-RES ovarian) was greater than 100 µM. For the same molecule, the TGI (OVCAR-3 ovarian) was greater than 100 µM, the TGI (OVCAR-4 ovarian) was greater than 100 µM and the TGI (OVCAR-5 ovarian) was greater than 100 µM. The TGI (OVCAR-8 ovarian) was greater than 100 µM, the TGI (PC-3 prostate) was greater than 100 µM and the TGI (SF-268 CNS) was greater than 100 µM. For the same molecule, the TGI (SF-295 CNS) was greater than 100 µM, the TGI (SF-539 CNS) was greater than 100 µM and the TGI (SK-MEL-28 melanoma) was greater than 100 µM. It also gave a TGI (SK-MEL-5 melanoma) greater than 100 µM, a TGI (SK-OV-3 ovarian) greater than 100 µM and a TGI (SN12C renal) greater than 100 µM. It also gave a TGI (SNB-19 CNS) greater than 100 µM, a TGI (SNB-75 CNS) greater than 100 µM and a TGI (SR leukemia) greater than 100 µM. The TGI (SW-620 colon) was greater than 100 µM, the TGI (T-47D breast) was greater than 100 µM and the TGI (TK-10 renal) was greater than 100 µM. For the same molecule, the TGI (U251 CNS) was greater than 100 µM, the TGI (UACC-257 melanoma) was greater than 100 µM and the TGI (UACC-62 melanoma) was greater than 100 µM. For the same molecule, the TGI (UO-31 renal) was greater than 100 µM.

For `COc1ccc(-c2c(C#N)c(N)nc3c2COc2ccc(F)cc2-3)cc1OC`, the GI50 (786-0 renal) was 16.9 µM, the TGI (786-0 renal) was 46.2 µM and the GI50 (A549 NSCLC) was 3.81 µM. For the same molecule, the TGI (A549 NSCLC) was 14.2 µM, the GI50 (ACHN renal) was 1.4 µM and the TGI (ACHN renal) was 5.44 µM. For the same molecule, the GI50 (BT-549 breast) was 10.1 µM, the TGI (BT-549 breast) was 26.5 µM and the GI50 (CAKI-1 renal) was 2.18 µM. The TGI (CAKI-1 renal) was 8.15 µM, the GI50 (COLO 205 colon) was 5.79 µM and the TGI (COLO 205 colon) was greater than 100 µM. For the same molecule, the GI50 (DU-145 prostate) was 8.14 µM, the TGI (DU-145 prostate) was 23.9 µM and the GI50 (EKVX NSCLC) was 4.91 µM. The TGI (EKVX NSCLC) was 24.8 µM, the GI50 (HCT-116 colon) was 6.66 µM and the TGI (HCT-116 colon) was 37.3 µM. For the same molecule, the GI50 (HCT-15 colon) was 8.29 µM, the TGI (HCT-15 colon) was 52.9 µM and the GI50 (HL-60(TB) leukemia) was 23.2 µM. For the same molecule, the TGI (HL-60(TB) leukemia) was 92.4 µM, the GI50 (HOP-62 NSCLC) was 14.7 µM and the TGI (HOP-62 NSCLC) was 39 µM. The GI50 (HOP-92 NSCLC) was 18 µM, the TGI (HOP-92 NSCLC) was greater than 100 µM and the GI50 (HS 578T breast) was 7.55 µM. It also gave a TGI (HS 578T breast) of 38.5 µM, a GI50 (IGROV1 ovarian) of 8.88 µM and a TGI (IGROV1 ovarian) of 65.1 µM. For the same molecule, the GI50 (K-562 leukemia) was 53.6 µM, the TGI (K-562 leukemia) was greater than 100 µM and the GI50 (KM12 colon) was 5.83 µM. It also gave a TGI (KM12 colon) greater than 100 µM, a GI50 (LOX IMVI melanoma) of 2.29 µM and a TGI (LOX IMVI melanoma) of 9.84 µM. For the same molecule, the GI50 (M14 melanoma) was 22 µM, the TGI (M14 melanoma) was 98.9 µM and the GI50 (MCF7 breast) was 17.6 µM. For the same molecule, the TGI (MCF7 breast) was greater than 100 µM, the GI50 (MDA-MB-231 breast) was 2.53 µM and the TGI (MDA-MB-231 breast) was 9.63 µM. For the same molecule, the GI50 (MDA-MB-435) was 10.7 µM, the TGI (MDA-MB-435) was 37.4 µM and the GI50 (MOLT-4 leukemia) was greater than 100 µM. The TGI (MOLT-4 leukemia) was greater than 100 µM, the GI50 (NCI-H226 lung) was 4.54 µM and the TGI (NCI-H226 lung) was 20 µM. It also gave a GI50 (NCI-H23 lung) of 14.1 µM, a TGI (NCI-H23 lung) of 30.5 µM and a GI50 (NCI-H460 lung) of 9.03 µM. The TGI (NCI-H460 lung) was greater than 100 µM, the GI50 (NCI-H522 lung) was 18.9 µM and the TGI (NCI-H522 lung) was greater than 100 µM. It also gave a GI50 (NCI/ADR-RES ovarian) of 17.4 µM, a TGI (NCI/ADR-RES ovarian) of 42.2 µM and a GI50 (OVCAR-3 ovarian) of 2.21 µM. For the same molecule, the TGI (OVCAR-3 ovarian) was 6.41 µM, the GI50 (OVCAR-4 ovarian) was 6.82 µM and the TGI (OVCAR-4 ovarian) was 63.7 µM. The GI50 (OVCAR-5 ovarian) was 17.2 µM, the TGI (OVCAR-5 ovarian) was 33.6 µM and the GI50 (OVCAR-8 ovarian) was 3.62 µM. For the same molecule, the TGI (OVCAR-8 ovarian) was 13.2 µM, the GI50 (PC-3 prostate) was 17.1 µM and the TGI (PC-3 prostate) was greater than 100 µM. The GI50 (RPMI-8226 leukemia) was 6.61 µM, the TGI (RPMI-8226 leukemia) was greater than 100 µM and the GI50 (RXF 393 renal) was 20.3 µM. It also gave a TGI (RXF 393 renal) of 51.6 µM, a GI50 (SF-268 CNS) of 15.8 µM and a TGI (SF-268 CNS) of 56.4 µM. It also gave a GI50 (SF-295 CNS) of 3.27 µM, a TGI (SF-295 CNS) of 10.9 µM and a GI50 (SF-539 CNS) of 3.38 µM. It also gave a TGI (SF-539 CNS) of 11 µM, a GI50 (SK-MEL-2 melanoma) of 34.5 µM and a TGI (SK-MEL-2 melanoma) greater than 100 µM. For the same molecule, the GI50 (SK-MEL-28 melanoma) was 29.9 µM, the TGI (SK-MEL-28 melanoma) was greater than 100 µM and the GI50 (SK-MEL-5 melanoma) was 12 µM. The TGI (SK-MEL-5 melanoma) was 37.5 µM, the GI50 (SK-OV-3 ovarian) was 8.44 µM and the TGI (SK-OV-3 ovarian) was 36.8 µM. For the same molecule, the GI50 (SN12C renal) was 6.22 µM, the TGI (SN12C renal) was 20.9 µM and the GI50 (SNB-19 CNS) was 4.37 µM. It also gave a TGI (SNB-19 CNS) of 23.7 µM, a GI50 (SR leukemia) of 2.15 µM and a TGI (SR leukemia) greater than 100 µM. For the same molecule, the GI50 (SW-620 colon) was 9.21 µM, the TGI (SW-620 colon) was greater than 100 µM and the GI50 (TK-10 renal) was 3.35 µM. The TGI (TK-10 renal) was 24 µM, the GI50 (U251 CNS) was 10.3 µM and the TGI (U251 CNS) was 22.7 µM. It also gave a GI50 (UACC-257 melanoma) of 18.9 µM, a TGI (UACC-257 melanoma) of 60.5 µM and a GI50 (UACC-62 melanoma) of 7.99 µM. For the same molecule, the TGI (UACC-62 melanoma) was 23 µM, the GI50 (UO-31 renal) was 17.3 µM and the TGI (UO-31 renal) was 57.9 µM.
